Measurements as given in PubChem BioAssay AID1918933 (Molecular Pharmacology Branch, DTP, NCI, 2023).

Test system: 186277-243-T-J2-PDC complex spheroid viability
Experiment: Anticancer human tumor 186277-243-T-J2-PDC patient-derived colon adenocarcinoma cell line growth inhibition
Details: for IC50: curve of first compound; for viability, T/C: stronger effect = lower value
Source text: Multicellular complex tumor spheroid response to LSD1 Inhibitor Iadademstat in combination with a variety of drugs and investigational agents in selected tumor cell lines
The current study was undertaken to assess response to LSD1 inhibitors in combination with standard-of-care drugs and investigational agents in solid tumor complex spheroid models as well as in the K-562 leukemia. Complex spheroids include a stromal component modeled by human endothelial cells (HUVEC) and fibroblasts modeled by human mesenchymal stem cells (MSCs). The concentration ranges selected for each drug and investigational agent were based upon clinically achievable concentrations if the clinical Cmax of the agent was known.
Compounds. The drugs and investigational agents used in this study are listed on Table 1. All of the agents used, including staurosporine (NSC755774) and gemcitabine (NSC613327), were obtained from the Developmental Therapeutics Program, NCI. FDA-approved anticancer drugs are available from the NCI at http://dtp.nci.nih.gov/branches/dscb/oncology_drugset_explanation.html. Drugs and investigational agents were >95% pure by proton nuclear magnetic resonance (NMR) and liquid chromatography/mass spectrometry (LC/MS). Stock solutions were prepared at 400x in DMSO, stored at -70 degrees C, and diluted in fresh medium prior to their use. The final concentration of DMSO in cell culture wells never exceeded 0.25% (v/v). The FDA-approved anticancer drug set is available from the Developmental Therapeutics Program at https://dtp.cancer.gov/organization/dscb/obtaining/available_plates.htm. All drugs and investigational agents were tested over a range starting from a high concentration at or near the clinical Cmax and decreasing in half-log increments. If the clinical Cmax for an agent had not been determined, the highest concentration tested was 10 microM.
Cell Lines. The patient-derived cancer cell (PDC) lines: 292921-168-R-J2-PDC, K24384-001-R-PDC, and 521955-158-R2-J5-PDC pancreatic carcinomas, 556581-035-R-J1 ovarian carcinoma, 324938-238-R-J1-PDC, 855422-203-R-J1-PDC and 883617-216-R-J1-PDC urothelial bladder carcinomas, 743489-274-T-PDC renal cell carcinoma, 138582-R-J1 Merkel cell tumor, K60290-347-R-J1 and K57222-313-R-J1-PDC glioblastomas, 653999-131-R-J2-PDC, LG0703-F948-PDC, and 349418-098-R-PDC non-small cell lung carcinomas, 885512-296-R-J2-PDC, 171881-019-R-J1-PDC breast carcinomas and 186277-243-T-J2-PDC and 233499-124-R-J2-PDC colon carcinomas were obtained from the NCI Patient-Derived Models Repository (PDMR, https://pdmr.cancer.gov). The established cell lines NCI/ADR-RES (RRID:CVCL_14520 and OVCAR-5 (RRID:CVCL_1628) ovarian carcinomas, 786-O (RRID:CVCL_1051) and A498 (RRID:CVCL_A498) renal cell carcinoma, NCI-H211 (ATCC, cat. CRL-5824; RRID:CVCL_1529), NCI-H196 (ATCC, cat. CRL-5823, RRID:CVCL_1509), SW 1271 (ATCC, cat. CRL-2177, RRID:CVCL_1716) and NCI-H1876 (ATCC, cat. CRL-5902, RRID:CVCL_1503) small cell lung carcinomas, MDA-MB-231 (RRID:CVCL_0062) and MDA-MB-468 (RRID:CVCL_0419)breast carcinomas (10-12). Pooled donor human umbilical vein endothelial cells (HUVEC, Lonza, cat. CC-2519) and human mesenchymal stem cells (hMSC, Lonza, cat. PT-2501) were purchased from Lonza (Walkersville, MD).
Cell Culture. All cells were maintained in an incubator at 37 degrees C and 5% CO2 with 95% humidity. The PDC lines were cultured according to standard operating procedures established by the NCI PDMR (https://pdmr.cancer.gov). Briefly all PDCs were thawed and cultured in Matrigel-coated flasks prepared with a working solution of 1X Ham's F-12 nutrient mix, without supplementation (Invitrogen, Waltham, MA, cat. 11765054), 100 U/mL penicillin-streptomycin (Invitrogen, cat. 15140122), and 2.5% Matrigel (Corning Inc., Corning, NY, cat. 354248) for the first three passages. […]
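Further: 7 day exposure to compounds.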
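Wherever viability, T/C is given: 100% = DMSO vehicle control viability.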

Compound: Nc1ccn(C2OC(CO)C(O)C2(F)F)c(=O)n1 (stereo not given) + NC1CC1c1ccc(-c2cccc(O)c2)cc1
- IC50 (second compound 0.1 µM): 2.41 nM
- IC50 (second compound 0.316 µM): 2.18 nM
- IC50 (second compound 1 µM): 2.52 nM
- IC50 (second compound 3.16 µM): 2.31 nM
- IC50 (second compound 10 µM): 2.34 nM
- viability, T/C (second compound 0.1 µM, first compound 0.000949 µM): 112%
- viability, T/C (second compound 0.1 µM, first compound 0.003 µM): 35.5%
- viability, T/C (second compound 0.1 µM, first compound 0.00949 µM): 14.2%
- viability, T/C (second compound 0.1 µM, first compound 0.03 µM): 11.6%
- viability, T/C (second compound 0.1 µM, first compound 0.0949 µM): 12.2%
- viability, T/C (second compound 0.1 µM, first compound 0.3 µM): 13.4%
- viability, T/C (second compound 0.316 µM, first compound 0.000949 µM): 103%
- viability, T/C (second compound 0.316 µM, first compound 0.003 µM): 29.9%
- viability, T/C (second compound 0.316 µM, first compound 0.00949 µM): 14.5%
- viability, T/C (second compound 0.316 µM, first compound 0.03 µM): 12%
- viability, T/C (second compound 0.316 µM, first compound 0.0949 µM): 12.2%
- viability, T/C (second compound 0.316 µM, first compound 0.3 µM): 12.8%
- viability, T/C (second compound 1 µM, first compound 0.000949 µM): 116%
- viability, T/C (second compound 1 µM, first compound 0.003 µM): 38.4%
- viability, T/C (second compound 1 µM, first compound 0.00949 µM): 14.9%
- viability, T/C (second compound 1 µM, first compound 0.03 µM): 12.2%
- viability, T/C (second compound 1 µM, first compound 0.0949 µM): 11.9%
- viability, T/C (second compound 1 µM, first compound 0.3 µM): 13.6%
- viability, T/C (second compound 3.16 µM, first compound 0.000949 µM): 103%
- viability, T/C (second compound 3.16 µM, first compound 0.003 µM): 34.3%
- viability, T/C (second compound 3.16 µM, first compound 0.00949 µM): 15.8%
- viability, T/C (second compound 3.16 µM, first compound 0.03 µM): 11.7%
- viability, T/C (second compound 3.16 µM, first compound 0.0949 µM): 13.8%
- viability, T/C (second compound 3.16 µM, first compound 0.3 µM): 13.4%
- viability, T/C (second compound 10 µM, first compound 0.000949 µM): 98.2%
- viability, T/C (second compound 10 µM, first compound 0.003 µM): 36.7%
- viability, T/C (second compound 10 µM, first compound 0.00949 µM): 15.5%
- viability, T/C (second compound 10 µM, first compound 0.03 µM): 11.2%
- viability, T/C (second compound 10 µM, first compound 0.0949 µM): 12.7%
- viability, T/C (second compound 10 µM, first compound 0.3 µM): 13.5%
